# Data: patent US8877715B2, “Cytotoxic conjugates having neuropeptide Y receptor binding compound” (priority 2009, dated 2014)
# System: Human MCF-7 breast carcinoma cells
# Experiment: In vivo growth assay, MCF-7 xenograft (Study A and Study B)
# Parameters: species or system nude mice
# Details: Study A
# Description: Once-weekly treatments were administered for three weeks by tail vein injection except in cases where poor drug solubility or tail necrosis necessitated intraperitoneal injections. […] Example 93 was evaluated in Study B at 55.45 mg/kg, 110.9 mg/kg and 221.8 mg/kg. Antitumor activity was assessed by tumor growth delay (“TGD”) defined as the difference in median time to endpoint tumor size in a treatment group compared to the control group, and by tumor growth inhibition (“TGI”) defined as the difference between median tumor volumes of the treatment and control groups on a study day providing a balance between measurable group responses and large group sizes. Toxicity was evaluated by body weight measurements and clinical observations.
# Female nude mice (nu/nu, Harlan) were 10-11 weeks old and had body weight ranges of
# The animals were fed ad libitum water (reverse osmosis, 1 ppm Cl) and NIH 31 Modified and Irradiated Lab Diet® consisting of 18.0% crude protein, 5.0% crude fat, and 5.0% crude fiber. The mice were housed on irradiated ALPHA-Dri® Bed-o′ Cobs® Laboratory Animal Bedding in static microisolators on a 12-hour light cycle at 21-22° C.
# Human MCF-7 breast carcinoma cells were maintained in RPMI 1640 medium containing 100 units/mL penicillin G sodium, 100 μg/mL streptomycin sulfate, and 25 μg/mL gentamicin. The medium was supplemented with 10% heat-inactivated fetal bovine serum and 2 mM glutamine. Additional buffering was provided with 10 mM HEPES and 0.075% sodium bicarbonate. The tumor cells were cultured in tissue culture flasks in a humidified incubator at 37° C. in an atmosphere of 95% air and 5% CO2.
# Three to seven days prior to cell injection, a pellet containing 17-β-estradiol (0.36 mg, 60-day release, Innovative Research of America) was implanted subcutaneously between the scapulae of each mouse.
# The MCF-7 tumor cells used for implantation were harvested during log phase growth and resuspended in phosphate-buffered saline at 5×10^7 cells/mL. […] Tumors were monitored twice weekly and then daily as their volumes approached 80-120 mm^3. […] Thus, a separate study (“Study B”) was set up comprising six groups (n=10) of animals. In this study, 17 days elapsed between cell implantation and group assignment. […] Tumor size, in mm^3, was calculated from:
# [formula] where w=width and l=length in mm of the MCF-7 tumor. Tumor weight may be estimated with the assumption that 1 mg is equivalent to 1 mm^3 of tumor volume.
# Example 93 dosing solutions were prepared fresh in 0.1N acetic acid for each day of treatment.
# Camptothecin (Lot No. 034K3648, Sigma) stock solutions were made from 60% DMA and 40% Tween 80 and stored at room temperature during the study. Dosing solutions were prepared fresh on each day of dosing by diluting the stocks 1:20 in saline.
# The treatment plans are summarized in Table 3A for Study A and Table 3B for Study B.
# All treatments and vehicles were given once-weekly for three doses (“qwk×3”). Group 1 mice received no gavage and no injections, and served as a control for tumor progression and estrogen toxicity. Group 2 animals received vehicle.
# Each treatment dose was administered in a volume of 0.2 mL per 20 g of body weight, and was scaled to the body weight of the animal.
# Median tumor growth curves of FIGS. 1-3 show median tumor volumes as a function of time. When an animal exited the study due to tumor size, the final tumor volume recorded for the animal was included with the data used to calculate the group median tumor volume at subsequent time points. Curves were truncated after 50% of animals in a group had exited the study.
substance,measurement,setting,value
"[camptothecin-rvD-Asp-Suc-Tyr^1, Nle^17, 4Hyp^34]hNPY(1-36)-NH2 [Example 92]",tumor growth inhibition (TGI),Day 18,"dose-related, significantly so at 110.6 and 221.2 mg/kg, and of potential therapeutic value at the higher dose level"
same,mean tumor volume,"G 7: 55.3 mg/kg qwk x 3, D 1",124.1 mm^3
same,mean tumor volume,"G 7: 55.3 mg/kg qwk x 3, D 4",112.3 mm^3
same,mean tumor volume,"G 7: 55.3 mg/kg qwk x 3, D 7",139.2 mm^3
same,mean tumor volume,"G 7: 55.3 mg/kg qwk x 3, D 11",168.4 mm^3
same,mean tumor volume,"G 7: 55.3 mg/kg qwk x 3, D 14",250.9 mm^3
same,mean tumor volume,"G 7: 55.3 mg/kg qwk x 3, D 18",242.9 mm^3
same,mean tumor volume,"G 7: 55.3 mg/kg qwk x 3, D 21",262.5 mm^3
same,mean tumor volume,"G 7: 55.3 mg/kg qwk x 3, D 25",385.9 mm^3
same,mean tumor volume,"G 7: 55.3 mg/kg qwk x 3, D 28",505.1 mm^3
same,mean tumor volume,"G 7: 55.3 mg/kg qwk x 3, D 32",532.2 mm^3
same,mean tumor volume,"G 7: 55.3 mg/kg qwk x 3, D 35",631 mm^3
same,mean tumor volume,"G 7: 55.3 mg/kg qwk x 3, D 39",978 mm^3
same,mean tumor volume,"G 8: 110.6 mg/kg qwk x 3, D 1",124.1 mm^3
same,mean tumor volume,"G 8: 110.6 mg/kg qwk x 3, D 4",130.8 mm^3
same,mean tumor volume,"G 8: 110.6 mg/kg qwk x 3, D 7",127.5 mm^3
same,mean tumor volume,"G 8: 110.6 mg/kg qwk x 3, D 11",146 mm^3
same,mean tumor volume,"G 8: 110.6 mg/kg qwk x 3, D 14",184.6 mm^3
same,mean tumor volume,"G 8: 110.6 mg/kg qwk x 3, D 18",187.9 mm^3
same,mean tumor volume,"G 8: 110.6 mg/kg qwk x 3, D 21",216.2 mm^3
same,mean tumor volume,"G 8: 110.6 mg/kg qwk x 3, D 25",337.3 mm^3
same,mean tumor volume,"G 8: 110.6 mg/kg qwk x 3, D 28",439.6 mm^3
same,mean tumor volume,"G 8: 110.6 mg/kg qwk x 3, D 32",454.8 mm^3
same,mean tumor volume,"G 8: 110.6 mg/kg qwk x 3, D 35",550.5 mm^3
same,mean tumor volume,"G 8: 110.6 mg/kg qwk x 3, D 39",938 mm^3
same,mean tumor volume,"G 9: 221.2 mg/kg qwk x 3, D 1",124.1 mm^3
same,mean tumor volume,"G 9: 221.2 mg/kg qwk x 3, D 4",118.3 mm^3
same,mean tumor volume,"G 9: 221.2 mg/kg qwk x 3, D 7",118.9 mm^3
same,mean tumor volume,"G 9: 221.2 mg/kg qwk x 3, D 11",118.8 mm^3
same,mean tumor volume,"G 9: 221.2 mg/kg qwk x 3, D 14",109.4 mm^3
same,mean tumor volume,"G 9: 221.2 mg/kg qwk x 3, D 18",129.5 mm^3
same,mean tumor volume,"G 9: 221.2 mg/kg qwk x 3, D 21",150.1 mm^3
same,mean tumor volume,"G 9: 221.2 mg/kg qwk x 3, D 25",172.2 mm^3
same,mean tumor volume,"G 9: 221.2 mg/kg qwk x 3, D 28",197.7 mm^3
same,mean tumor volume,"G 9: 221.2 mg/kg qwk x 3, D 32",213.8 mm^3
same,mean tumor volume,"G 9: 221.2 mg/kg qwk x 3, D 35",301.7 mm^3
same,mean tumor volume,"G 9: 221.2 mg/kg qwk x 3, D 39",372 mm^3
same,tumor regressions,"highest dose level (222.6 or 221.2 mg/kg), TGD-evaluated sample",3/5
same,tumor growth delay (TGD),"three dose levels, qwk x 3","dose-related TGD, reaching statistical significance"
